Measurements taken from PubChem BioAssay (NCI).
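Cells were grown in 96-well plates and exposed to each compound for 48 hours at five concentrations; endpoints were interpolated linearly between bracketing concentrations, or set to the highest concentration if not reached. The concentration for 50% growth inhibition is given as GI50. TGI marks complete inhibition of growth.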

What was measured:
Assay in all cases: inhibition of tumour cell growth, NCI panel, 48 h
[1] = test system: A498 renal
[2] = test system: A549 NSCLC
[3] = test system: ACHN renal
[4] = test system: BT-549 breast
[5] = test system: CAKI-1 renal
[6] = test system: CCRF-CEM leukemia
[7] = test system: DU-145 prostate
[8] = test system: EKVX NSCLC
[9] = test system: HCC-2998 colon
[10] = test system: HCT-116 colon
[11] = test system: HCT-15 colon
[12] = test system: HL-60(TB) leukemia
[13] = test system: HOP-62 NSCLC
[14] = test system: HS 578T breast
[15] = test system: HT29 colon
[16] = test system: IGROV1 ovarian
[17] = test system: K-562 leukemia
[18] = test system: KM12 colon
[19] = test system: LOX IMVI melanoma
[20] = test system: M14 melanoma
[21] = test system: MCF7 breast
[22] = test system: MDA-MB-231 breast
[23] = test system: MOLT-4 leukemia
[24] = test system: NCI-H226 lung
[25] = test system: NCI-H23 lung
[26] = test system: NCI-H460 lung
[27] = test system: NCI-H522 lung
[28] = test system: NCI/ADR-RES ovarian
[29] = test system: OVCAR-3 ovarian
[30] = test system: OVCAR-4 ovarian
[31] = test system: OVCAR-5 ovarian
[32] = test system: OVCAR-8 ovarian
[33] = test system: PC-3 prostate
[34] = test system: RPMI-8226 leukemia
[35] = test system: RXF 393 renal
[36] = test system: SF-268 CNS
[37] = test system: SF-539 CNS
[38] = test system: SK-MEL-2 melanoma
[39] = test system: SK-MEL-28 melanoma
[40] = test system: SK-MEL-5 melanoma
[41] = test system: SK-OV-3 ovarian
[42] = test system: SN12C renal
[43] = test system: SNB-19 CNS
[44] = test system: SNB-75 CNS
[45] = test system: SR leukemia
[46] = test system: SW-620 colon
[47] = test system: T-47D breast
[48] = test system: TK-10 renal
[49] = test system: U251 CNS
[50] = test system: UACC-257 melanoma
[51] = test system: UACC-62 melanoma
[52] = test system: UO-31 renal
[53] = test system: 786-0 renal
[54] = test system: COLO 205 colon
[55] = test system: HOP-92 NSCLC
[56] = test system: MDA-MB-435
[57] = test system: SF-295 CNS

Structure (SMILES): COc1ccc(-c2n/c(=C\c3c(O)[nH]c4ccccc34)cc3c2=Nc2ccccc2-3)cc1
- GI50 [1]: 2.42 µM
- TGI [1]: 13.2 µM
- GI50 [2]: 1.79 µM
- TGI [2]: 4.31 µM
- GI50 [3]: 6.81 µM
- TGI [3]: 21.3 µM
- GI50 [4]: 1.45 µM
- TGI [4]: 2.96 µM
- GI50 [5]: 14.5 µM
- TGI [5]: 36.7 µM
- GI50 [6]: 2.24 µM
- TGI [6]: 7.1 µM
- GI50 [7]: 1.61 µM
- TGI [7]: 3.31 µM
- GI50 [8]: 3.44 µM
- TGI [8]: 52 µM
- GI50 [9]: 1.52 µM
- TGI [9]: 3.07 µM
- GI50 [10]: 1.55 µM
- TGI [10]: 2.88 µM
- GI50 [11]: 1.64 µM
- TGI [11]: 4.13 µM
- GI50 [12]: 1.9 µM
- TGI [12]: 4.08 µM
- GI50 [13]: 1.63 µM
- TGI [13]: 3.23 µM
- GI50 [14]: 1.85 µM
- TGI [14]: 5.75 µM
- GI50 [15]: 1.1 µM
- TGI [15]: 2.29 µM
- GI50 [16]: 15.3 µM
- TGI [16]: 47.7 µM
- GI50 [17]: 1.45 µM
- TGI [17]: 3.63 µM
- GI50 [18]: 0.695 µM
- TGI [18]: 2.18 µM
- GI50 [19]: 1.55 µM
- TGI [19]: 2.88 µM
- GI50 [20]: 1.15 µM
- TGI [20]: 2.43 µM
- GI50 [21]: 1.28 µM
- TGI [21]: 2.75 µM
- GI50 [22]: 1.13 µM
- TGI [22]: 2.52 µM
- GI50 [23]: 2.03 µM
- TGI [23]: 4.27 µM
- GI50 [24]: 15.1 µM
- TGI [24]: 36.2 µM
- GI50 [25]: 1.55 µM
- TGI [25]: 3.09 µM
- GI50 [26]: 1.68 µM
- TGI [26]: 3.28 µM
- GI50 [27]: 1.06 µM
- TGI [27]: 2.3 µM
- GI50 [28]: 0.667 µM
- TGI [28]: 3.04 µM
- GI50 [29]: 1.01 µM
- TGI [29]: 2.28 µM
- GI50 [30]: 1.47 µM
- TGI [30]: 2.98 µM
- GI50 [31]: 5.63 µM
- TGI [31]: 20.4 µM
- GI50 [32]: 1.42 µM
- TGI [32]: 3.11 µM
- GI50 [33]: 1.3 µM
- TGI [33]: 9.31 µM
- GI50 [34]: 2.35 µM
- TGI [34]: 6.87 µM
- GI50 [35]: 1.26 µM
- TGI [35]: 2.67 µM
- GI50 [36]: 1.64 µM
- TGI [36]: 3.58 µM
- GI50 [37]: 1.86 µM
- TGI [37]: 3.31 µM
- GI50 [38]: 0.795 µM
- TGI [38]: 2.35 µM
- GI50 [39]: 1.07 µM
- TGI [39]: 2.32 µM
- GI50 [40]: 1.36 µM
- TGI [40]: 2.64 µM
- GI50 [41]: 9.19 µM
- TGI [41]: 35.6 µM
- GI50 [42]: 2.03 µM
- TGI [42]: 5.3 µM
- GI50 [43]: 1.63 µM
- TGI [43]: 3.79 µM
- GI50 [44]: 2.07 µM
- TGI [44]: 21.1 µM
- GI50 [45]: 0.518 µM
- TGI [45]: 3.15 µM
- GI50 [46]: 1.11 µM
- TGI [46]: 2.31 µM
- GI50 [47]: 2.22 µM
- TGI [47]: 9.43 µM
- GI50 [48]: 1.65 µM
- TGI [48]: 3.01 µM
- GI50 [49]: 1.45 µM
- TGI [49]: 2.76 µM
- GI50 [50]: 2.19 µM
- TGI [50]: 6.97 µM
- GI50 [51]: 1.31 µM
- TGI [51]: 2.58 µM
- GI50 [52]: 0.693 µM
- TGI [52]: 24.2 µM

Structure (SMILES): Cc1cc2nc(-c3c(F)cccc3Cl)n(Cc3c(F)cccc3Cl)c2cc1C
- GI50 [53]: 15.8 µM
- TGI [53]: 31.3 µM
- GI50 [1]: 15.5 µM
- TGI [1]: 32.2 µM
- GI50 [2]: 11.7 µM
- TGI [2]: 33.1 µM
- GI50 [3]: 14.5 µM
- TGI [3]: 45.6 µM
- GI50 [4]: 18.5 µM
- TGI [4]: 46.2 µM
- GI50 [5]: 2.92 µM
- TGI [5]: 14.6 µM
- GI50 [6]: 2.6 µM
- TGI [6]: > 100 µM
- GI50 [54]: 11.6 µM
- TGI [54]: 26.3 µM
- GI50 [7]: 16.1 µM
- TGI [7]: 41.4 µM
- GI50 [9]: 11.2 µM
- TGI [9]: 23.7 µM
- GI50 [10]: 6.43 µM
- TGI [10]: 20.3 µM
- GI50 [11]: 13.9 µM
- TGI [11]: 33.3 µM
- GI50 [13]: 13.9 µM
- TGI [13]: 29.1 µM
- GI50 [55]: 14 µM
- TGI [55]: 33.5 µM
- GI50 [14]: 15.8 µM
- TGI [14]: 48.4 µM
- GI50 [15]: 10.5 µM
- TGI [15]: > 100 µM
- GI50 [16]: 33 µM
- TGI [16]: > 100 µM
- GI50 [17]: 39.4 µM
- TGI [17]: > 100 µM
- GI50 [18]: 10.5 µM
- TGI [18]: 37.7 µM
- GI50 [19]: 13.5 µM
- TGI [19]: 30.2 µM
- GI50 [20]: 11.5 µM
- TGI [20]: 26.7 µM
- GI50 [21]: 12.8 µM
- TGI [21]: > 100 µM
- GI50 [22]: 10.4 µM
- TGI [22]: 23.1 µM
- GI50 [56]: 7.33 µM
- TGI [56]: 22.7 µM
- GI50 [23]: 30.4 µM
- TGI [23]: > 100 µM
- GI50 [24]: 15 µM
- TGI [24]: 38.3 µM
- GI50 [25]: 9.49 µM
- TGI [25]: 22.9 µM
- GI50 [26]: 6.32 µM
- TGI [26]: 30.9 µM
- GI50 [27]: 20.3 µM
- TGI [27]: 48.9 µM
- GI50 [28]: 12.5 µM
- TGI [28]: 26.3 µM
- GI50 [30]: 19 µM
- TGI [30]: 74.1 µM
- GI50 [31]: 15.9 µM
- TGI [31]: 34.1 µM
- GI50 [32]: 18.9 µM
- TGI [32]: 46.6 µM
- GI50 [33]: 3.44 µM
- TGI [33]: 12.6 µM
- GI50 [34]: 16.3 µM
- TGI [34]: > 100 µM
- GI50 [35]: 11.8 µM
- TGI [35]: 28.4 µM
- GI50 [36]: 11 µM
- TGI [36]: 31.7 µM
- GI50 [57]: 6.92 µM
- TGI [57]: 33.3 µM
- GI50 [37]: 17.3 µM
- TGI [37]: 34.8 µM
- GI50 [38]: 50.2 µM
- TGI [38]: > 100 µM
- GI50 [39]: 24.8 µM
- TGI [39]: 55.2 µM
- GI50 [40]: 11.2 µM
- TGI [40]: 23.6 µM
- GI50 [41]: 19.3 µM
- TGI [41]: 51.8 µM
- GI50 [42]: 11.7 µM
- TGI [42]: 24.2 µM
- GI50 [43]: 25.5 µM
- TGI [43]: 93.7 µM
- GI50 [44]: 45.5 µM
- TGI [44]: > 100 µM
- GI50 [45]: 17.5 µM
- TGI [45]: > 100 µM
- GI50 [46]: 11.8 µM
- TGI [46]: 32.4 µM
- GI50 [48]: 15.1 µM
- TGI [48]: 46.5 µM
- GI50 [49]: 14.1 µM
- TGI [49]: 29.9 µM
- GI50 [50]: 16.4 µM
- TGI [50]: 38.3 µM
- GI50 [51]: 6.41 µM
- TGI [51]: 19.3 µM
- GI50 [52]: 13.2 µM
- TGI [52]: 54.5 µM
